Measurements published in ChEMBL document CHEMBL1136285, “Discovery of a novel potent Na+/Ca2+ exchanger inhibitor: design, synthesis and structure-activity relationships of 3,4-dihydro-2(1H)-quinazolinone derivatives” (Bioorg Med Chem Lett, 2003).

Key:
Cavia porcellus [1] = species on record: Cavia porcellus; assay: Inhibitory activity against Na+/[Ca2+] exchanger after 30 min of K+ free incubation in isolated left atria from guinea pig
Cavia porcellus [2] = species on record: Cavia porcellus; assay: Inhibitory activity (1 uM) against Na+/[Ca2+] exchanger after 30 min of K+ free incubation in isolated left atria from guinea pig; assay type: functional
[3] = pKa value was determined; assay type: physicochemical

IC30 (Cavia porcellus [1]) [nM] | pKa [3] | Compound | Inhibition (Cavia porcellus [2]) [%]
93 | – | CCCN1CCC(N2C(=O)Nc3ccccc3C2c2ccccc2)CC1 (stereo not drawn) | –
3600 | – | O=C1Nc2ccccc2C(c2ccccc2)N1C1CCN(CCc2ccccc2)CC1 (stereo not drawn) | –
> 10000 | – | NCCN1C(=O)Nc2ccccc2C1c1ccccc1 (stereo not drawn) | –
87 | – | CN1CCC(N2C(=O)Nc3ccccc3C2c2ccccc2)CC1 (stereo not drawn) | –
> 10000 | – | CCOCCN1C(=O)Nc2ccccc2C1c1ccccc1 (stereo not drawn) | –
17 | – | O=C1Nc2ccccc2C(c2ccccc2)N1C1CCN(Cc2ccccc2)CC1 (stereo not drawn) | –
4000 | – | O=C1Nc2ccccc2C(c2ccccc2)N1C1CCN(CC2CCCCC2)CC1 (stereo not drawn) | –
69 | 10.2 | CCN(CC)CCN1C(=O)Nc2ccccc2C1c1ccccc1 (stereo not drawn) | –
> 10000 | – | CC(C)CCCN1C(=O)Nc2ccccc2C1c1ccccc1 (stereo not drawn) | –
350 | – | CN(C)CCCN1C(=O)Nc2ccccc2C1c1ccccc1 (stereo not drawn) | –
580 | – | CCNCCN1C(=O)Nc2ccccc2C1c1ccccc1 (stereo not drawn) | –
1100 | – | O=C1Nc2ccccc2C(c2ccccc2)N1C1CCNCC1 (stereo not drawn) | –
> 10000 | -0.58 | CCN(CC)C(=O)CN1C(=O)Nc2ccccc2C1c1ccccc1 (stereo not drawn) | –
53 | – | CCN1CCC(N2C(=O)Nc3ccccc3C2c2ccccc2)CC1 (stereo not drawn) | –

Further lines, the molecule ahead of its results:

Compound | IC30 (Cavia porcellus [1]) [nM] | pKa [3] | Inhibition (Cavia porcellus [2]) [%]
CN(C)CCCN1C(=O)Nc2ccc(Cl)cc2C1c1ccco1 (stereo not drawn) | 690 | – | –
CN(C)CCCN1C(=O)Nc2ccccc2C1c1cccs1 (stereo not drawn) | 720 | – | –
CN(C)CCCN1C(=O)Nc2ccccc2C1C1CCCCC1 (stereo not drawn) | 570 | – | –
CN(C)CCCN1C(=O)Nc2ccc(Cl)cc2C1c1ccccc1 (stereo not drawn) | 460 | – | –
CC1c2ccccc2NC(=O)N1CCCN(C)C (stereo not drawn) | 5300 | – | –
CN(C)CCCN1C(=O)Nc2ccccc2C1c1ccccn1 (stereo not drawn) | 510 | – | –
CN(C)CCCN1C(=O)Nc2ccccc2C1Cc1ccccc1 (stereo not drawn) | > 10000 | – | –
CCOc1ccc(Oc2ccc(OCc3cc(F)ccc3F)cc2)c(N)c1 | – | – | > 80
CN(C)CCCN1C(S)=Nc2ccccc2C1c1ccccc1 (stereo not drawn) | 3800 | – | –
CCN(CC)CCCN1C(=O)Nc2ccccc2C1c1ccccc1 (stereo not drawn) | 40 | – | –
CCN(CC)CCCCN1C(=O)Nc2ccccc2C1c1ccccc1 (stereo not drawn) | 1900 | – | –
CN(C)CCCN1C(=O)N(C)c2ccc(Cl)cc2C1c1ccccc1 (stereo not drawn) | > 10000 | – | –
